Target: T1, hyperactive mutant BKCa channels (hSlo G803D/N806K) stably expressed in AD 293 cells (Homo sapiens, UniProt Q12791, G856D/N859K)
T1 construct: expressed in transfected cells
Assay: Cell-based fluorescence assay (FluxOR Potassium Ion Channel Assay) of BKCa channel activation
Details: compounds at 5 μM; n=3; vehicle 0.26

T1 sequence (Q12791 whole entry G856D/N859K): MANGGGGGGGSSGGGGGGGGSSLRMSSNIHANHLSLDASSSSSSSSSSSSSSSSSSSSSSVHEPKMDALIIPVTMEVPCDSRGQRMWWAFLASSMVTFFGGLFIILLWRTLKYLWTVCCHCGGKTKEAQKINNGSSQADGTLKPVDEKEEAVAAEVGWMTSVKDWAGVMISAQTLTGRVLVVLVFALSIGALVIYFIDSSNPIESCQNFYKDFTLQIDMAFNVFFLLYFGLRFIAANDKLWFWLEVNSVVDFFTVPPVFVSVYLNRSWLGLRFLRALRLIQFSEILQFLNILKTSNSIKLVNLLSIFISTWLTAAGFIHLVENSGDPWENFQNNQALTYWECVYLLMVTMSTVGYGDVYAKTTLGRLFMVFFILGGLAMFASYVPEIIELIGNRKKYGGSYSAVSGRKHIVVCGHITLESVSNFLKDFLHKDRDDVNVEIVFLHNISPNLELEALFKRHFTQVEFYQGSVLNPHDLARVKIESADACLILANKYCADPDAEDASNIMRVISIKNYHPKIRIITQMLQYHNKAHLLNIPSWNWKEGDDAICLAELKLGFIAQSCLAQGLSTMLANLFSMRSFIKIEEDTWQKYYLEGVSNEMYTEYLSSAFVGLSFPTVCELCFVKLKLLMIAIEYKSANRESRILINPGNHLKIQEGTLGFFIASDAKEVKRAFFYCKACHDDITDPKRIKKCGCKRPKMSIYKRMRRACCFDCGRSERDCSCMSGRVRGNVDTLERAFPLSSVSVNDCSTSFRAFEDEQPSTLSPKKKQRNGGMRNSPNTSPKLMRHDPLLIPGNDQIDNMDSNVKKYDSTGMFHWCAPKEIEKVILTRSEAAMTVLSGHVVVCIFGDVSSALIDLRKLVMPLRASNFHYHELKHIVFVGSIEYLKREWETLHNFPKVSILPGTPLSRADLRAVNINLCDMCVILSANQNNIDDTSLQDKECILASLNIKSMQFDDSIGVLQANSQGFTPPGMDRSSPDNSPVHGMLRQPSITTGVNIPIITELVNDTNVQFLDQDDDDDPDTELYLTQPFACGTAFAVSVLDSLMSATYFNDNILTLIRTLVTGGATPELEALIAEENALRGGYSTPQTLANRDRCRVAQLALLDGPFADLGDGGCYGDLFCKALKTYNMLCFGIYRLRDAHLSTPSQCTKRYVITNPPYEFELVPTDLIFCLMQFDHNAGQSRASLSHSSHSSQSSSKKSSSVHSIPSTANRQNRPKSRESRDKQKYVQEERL

Row | SMILES | Activity (ΔRFU normalized by activities of LDD175)
1 | COc1ccc(CNC(=O)c2sc(=S)n3c2[nH]c(=O)c2ccc(Cl)cc23)cc1 [TTQC-33, 8-chloro-N-(4-methoxybenzyl)-5-oxo-1-thioxo-4,5-dihydro-1H-thiazolo[3,4-a]quinazoline-3-carboxamide] | 0.34
2 | O=C(NCC1CCCO1)c1sc(=S)n2c1[nH]c(=O)c1cc(Br)ccc12 (stereo not drawn) [TTQC-16, 7-bromo-5-oxo-N-((tetrahydrofuran-2-yl)methyl)-1-thioxo-4,5-dihydro-1H-[1,3]thiazolo[3,4-a]quinazoline-3-carboxamide] | 0.64
3 | COc1ccc(OC)c(NC(=O)c2sc(=S)n3c2[nH]c(=O)c2cc(C)ccc23)c1 [TTQC-18, N-(2,5-dimethoxyphenyl)-7-methyl-5-oxo-1-thioxo-4,5-dihydro-1H-thiazolo[3,4-a]quinazoline-3-carboxamide] | 0.63
4 | CCOc1ccccc1NC(=O)c1sc(=S)n2c1[nH]c(=O)c1cc(Cl)ccc12 [TTQC-28, 7-chloro-N-(2-ethoxyphenyl)-5-oxo-1-thioxo-4,5-dihydro-1H-thiazolo[3,4-a]quinazoline-3-carboxamide] | 0.45
5 | CCc1ccccc1NC(=O)c1sc(=S)n2c1[nH]c(=O)c1cc3c(cc12)OCO3 [TTQC-19, N-(2-ethylphenyl)-5-oxo-1-thioxo-4,5-dihydro-1H-[1,3]dioxolo[4,5-g]thiazolo[3,4-a]quinazoline-3-carboxamide] | 0.62
6 | Cc1ccc2c(c1)c(=O)[nH]c1c(C(=O)Nc3ccccc3C)sc(=S)n12 [TTQC-11, 7-methyl-5-oxo-1-thioxo-N-(o-tolyl)-4,5-dihydro-1H-thiazolo[3,4-a]quinazoline-3-carboxamide] | 0.82
7 | Cc1ccc2c(c1)c(=O)[nH]c1c(C(=O)Nc3cc(Cl)ccc3C)sc(=S)n12 [TTQC-7, N-(5-chloro-2-methylphenyl)-7-methyl-5-oxo-1-thioxo-4,5-dihydro-1H-thiazolo[3,4-a]quinazoline-3-carboxamide] | 0.89
8 | CCOC(=O)c1ccc(NC(=O)c2sc(=S)n3c2[nH]c(=O)c2ccc(Cl)cc23)cc1 [TTQC-3, ethyl 4-(8-chloro-5-oxo-1-thioxo-4,5-dihydro-1H-thiazolo[3,4-a]quinazoline-3-carboxamido)benzoate] | 0.96
9 | COc1ccc(OC)c(NC(=O)c2sc(=S)n3c2[nH]c(=O)c2ccc(Cl)cc23)c1 [TTQC-34, 8-chloro-N-(2,5-dimethoxyphenyl)-5-oxo-1-thioxo-4,5-dihydro-1H-thiazolo[3,4-a]quinazoline-3-carboxamide] | 0.31
10 | COc1cccc(CNC(=O)c2sc(=S)n3c2[nH]c(=O)c2ccc(Cl)cc23)c1 [TTQC-29, 8-chloro-N-(3-methoxybenzyl)-5-oxo-1-thioxo-4,5-dihydro-1H-thiazolo[3,4-a]quinazoline-3-carboxamide] | 0.45
11 | CC(C)NC(=O)c1sc(=S)n2c1[nH]c(=O)c1cc(Br)ccc12 [TTQC-6, 7-bromo-N-isopropyl-5-oxo-1-thioxo-4,5-dihydro-1H-thiazolo[3,4-a]quinazoline-3-carboxamide] | 0.90
12 | COC(=O)c1ccc2c(=O)[nH]c3c(C(=O)Nc4ccc(F)cc4F)sc(=S)n3c2c1 [TTQC-13, methyl 3-((2,4-difluorophenyl)carbamoyl)-5-oxo-1-thioxo-4,5-dihydro-1H-thiazolo[3,4-a]quinazoline-8-carboxylate] | 0.79
13 | COc1ccc(OC)c(NC(=O)c2sc(=S)n3c2[nH]c(=O)c2cc(Br)ccc23)c1 [TTQC-15, 7-bromo-N-(2,5-dimethoxyphenyl)-5-oxo-1-thioxo-4,5-dihydro-1H-thiazolo[3,4-a]quinazoline-3-carboxamide] | 0.71
14 | Cc1ccc(NC(=O)c2sc(=S)n3c2[nH]c(=O)c2cc(C)ccc23)c(C)c1 [TTQC-31, N-(2,4-dimethylphenyl)-7-methyl-5-oxo-1-thioxo-4,5-dihydro-1H-thiazolo[3,4-a]quinazoline-3-carboxamide] | 0.34
15 | COC(=O)c1ccc2c(=O)[nH]c3c(C(=O)Nc4cccc(F)c4)sc(=S)n3c2c1 [TTQC-2, methyl 3-((3-fluorophenyl)carbamoyl)-5-oxo-1-thioxo-4,5-dihydro-1H-thiazolo[3,4-a]quinazoline-8-carboxylate] | 0.99
16 | CCc1ccccc1NC(=O)c1sc(=S)n2c1[nH]c(=O)c1ccc(Cl)cc12 [TTQC-4, 8-chloro-N-(2-ethylphenyl)-5-oxo-1-thioxo-4,5-dihydro-1H-thiazolo[3,4-a]quinazoline-3-carboxamide] | 0.95
17 | Cc1ccc(CNC(=O)c2sc(=S)n3c2[nH]c(=O)c2cc(Br)ccc23)cc1 [TTQC-14, 7-bromo-N-(4-methylbenzyl)-5-oxo-1-thioxo-4,5-dihydro-1H-thiazolo[3,4-a]quinazoline-3-carboxamide] | 0.76
18 | COc1ccccc1NC(=O)c1sc(=S)n2c1[nH]c(=O)c1cc3c(cc12)OCO3 [TTQC-24, N-(2-methoxyphenyl)-5-oxo-1-thioxo-4,5-dihydro-1H-[1,3]dioxolo[4,5-g]thiazolo[3,4-a]quinazoline-3-carboxamide] | 0.51
19 | Cc1ccc(NC(=O)c2sc(=S)n3c2[nH]c(=O)c2cc(Br)ccc23)c(C)c1 [TTQC-10, 7-bromo-N-(2,4-dimethylphenyl)-5-oxo-1-thioxo-4,5-dihydro-1H-thiazolo[3,4-a]quinazoline-3-carboxamide] | 0.83
20 | COc1ccccc1NC(=O)c1sc(=S)n2c1[nH]c(=O)c1cc(Cl)ccc12 [TTQC-5, 7-chloro-N-(2-methoxyphenyl)-5-oxo-1-thioxo-4,5-dihydro-1H-thiazolo[3,4-a]quinazoline-3-carboxamide] | 0.90
21 | COC(=O)c1ccc2c(=O)[nH]c3c(C(=O)NCc4ccccc4Cl)sc(=S)n3c2c1 [TTQC-8, methyl 3-((2-chlorobenzyl)carbamoyl)-5-oxo-1-thioxo-4,5-dihydro-1H-thiazolo[3,4-a]quinazoline-8-carboxylate] | 0.84
22 | Cc1ccc(Cl)cc1NC(=O)c1sc(=S)n2c1[nH]c(=O)c1cc3c(cc12)OCO3 [TTQC-12, N-(5-chloro-2-methylphenyl)-5-oxo-1-thioxo-4,5-dihydro-1H-[1,3]dioxolo[4,5-g]thiazolo[3,4-a]quinazoline-3-carboxamide] | 0.81
23 | O=C(NCc1ccccc1Cl)c1sc(=S)n2c1[nH]c(=O)c1cc(Cl)ccc12 [TTQC-21, 7-chloro-N-(2-chlorobenzyl)-5-oxo-1-thioxo-4,5-dihydro-1H-thiazolo[3,4-a]quinazoline-3-carboxamide] | 0.60
24 | O=C(NCC1CCCO1)c1sc(=S)n2c1[nH]c(=O)c1cc(Cl)ccc12 (stereo not drawn) [TTQC-27, 7-chloro-5-oxo-N-((tetrahydrofuran-2-yl)methyl)-1-thioxo-4,5-dihydro-1H-thiazolo[3,4-a]quinazoline-3-carboxamide] | 0.47
25 | CCc1ccc(NC(=O)c2sc(=S)n3c2[nH]c(=O)c2cc(Br)ccc23)cc1 [TTQC-32, 7-bromo-N-(4-ethylphenyl)-5-oxo-1-thioxo-4,5-dihydro-1H-thiazolo[3,4-a]quinazoline-3-carboxamide] | 0.34
26 | O=C(Nc1ccc(Br)cc1F)c1sc(=S)n2c1[nH]c(=O)c1ccc(Cl)cc12 [TTQC-26, N-(4-bromo-2-fluorophenyl)-8-chloro-5-oxo-1-thioxo-4,5-dihydro-1H-thiazolo[3,4-a]quinazoline-3-carboxamide] | 0.49
27 | O=C(NCc1ccccc1Cl)c1sc(=S)n2c1[nH]c(=O)c1cc(Br)ccc12 [TTQC-20, 7-bromo-N-(2-chlorobenzyl)-5-oxo-1-thioxo-4,5-dihydro-1H-thiazolo[3,4-a]quinazoline-3-carboxamide] | 0.62
28 | COc1cc2c(=O)[nH]c3c(C(=O)Nc4cc(Cl)ccc4C)sc(=S)n3c2cc1OC [TTQC-17, N-(5-chloro-2-methylphenyl)-7,8-dimethoxy-5-oxo-1-thioxo-4,5-dihydro-1H-thiazolo[3,4-a]quinazoline-3-carboxamide] | 0.64
29 | O=C(c1sc(=S)n2c1[nH]c(=O)c1cc(Br)ccc12)N1CCCCC1 [TTQC-30, 7-bromo-3-(piperidine-1-carbonyl)-1-thioxo-1H-thiazolo[3,4-a]quinazolin-5(4H)-one] | 0.37
30 | COc1cc2c(=O)[nH]c3c(C(=O)Nc4ccccc4)sc(=S)n3c2cc1OC [TTQC-22, 7,8-dimethoxy-5-oxo-N-phenyl-1-thioxo-4,5-dihydro-1H-thiazolo[3,4-a]quinazoline-3-carboxamide] | 0.57
